Test results published in patent US7923465B2, “Cannabinoid receptor ligands, pharmaceutical compositions containing them, and process for their preparation” (priority 2005, dated 2011).
Like-named read-outs stand apart in the source and are kept apart here.

Legend:
CB1 [1] = biological target: T1, CB1 (Rattus norvegicus, UniProt P20272); assay: GTPγS binding assay, CB1 functional assay in rat cerebellar membrane (Protocol VIII); type: biochemical; parameters: 10 μg rat cerebellum membrane; from tissue; host or cells: rat cerebellum membrane, prepared in-house; details: for activation at 0.3 µM / activation at 1 µM: 1 h, read-out: Per Se % Stimulation; for activation at 0.3 µM: tested at 300 nM; for inhibition at 0.3 µM: tested at 300 nM in presence of 1 μM WIN 55,212-2; for inhibition at 0.3 µM / inhibition at 1 µM: read-out: % Inhibition of WIN-55212-2 induced stimulation
Experimental: VIII. Protocol for GTPγS Binding Assay (CB1 Functional Assay in Rat Cerebellar Membrane)
In this GTPγS binding assay, total, basal and nonspecific binding were determined. See Griffin G., Atkinson P. J., Showalter V. M., Martin B. R. and Abood M. E., “Evaluation of cannabinoid receptor agonists and antagonists using the Guanosine-5′-O-(3-(^35S)thio)-triphosphate binding assay in rat cerebellar membranes,” J Pharmacol Exp Ther 285: 553-560, 1998. Three wells for total binding, three wells for basal binding, and three wells for nonspecific binding at 0.2 nM concentration of radioligand were used. Basal binding was defined by 50 μM GDP (Guanosine diphosphate) and non-specific binding was defined by 10 μM unlabeled GTPγS. 10 μg rat cerebellum membrane, 50 μM of GDP, WIN-55212-2 or test compound (1 μM or 300 nM), 10 μM unlabeled GTPγs, and 0.2 nM of [^35S]GTPγS were added into a 96 well plate and the final volume of the reaction mixture was made with GTPγS buffer (50 mM Tris, 3 mM anhydrous MgCl2, 0.2 mM EGTA and 100 mM NaCl pH 7.4) to 200 μl. The plates were incubated at 30° C. for 1 hour. Then the reaction was stopped by filtration using a Whatman GF/B-96 microfilter plate. Three washings were given using Tris-HCl. The radioactivity bound to the brain membrane was retained on the filter disks to which scintillation fluid was added (Microscint PS). Then plates were read for radioactive counts using a Beta Liquid Scintillation Counter (Packard Instruments, Ill., USA).
The rat cerebellar brain membrane was prepared as follow: • 1. Sacrifice the rat and take out the whole brain and separate cerebellum as fast as possible and keep it on ice. • 2. Take the weight of the cerebellum and homogenize in 30 ml of homogenizing buffer (50 mM Tris-HCL containing 1 mM EDTA and 5% sucrose, pH 7.5) using homogenizer in cold condition. • 3. Centrifuge the homogenized cerebellum at 18000 rpm (38000 g) for 15 min at 4° C. • 4. Resuspend the pellet in 5 ml 50 mM Tris-HCL containing 1 mM EDTA and keep it on ice for 30 min. • 5. Pass the membrane through insulin syringe to ensure uniform suspension. • 6. Centrifuge the membrane at 18000 rpm at 4° C. for 20 min. • 7. Reconstitute the pellet in 3 ml of GTPγS buffer and estimate the protein by BCA assay and store the membrane in aliquots of 1000 μg of protein. CB1 Agonist and Antagonist Activity Screening Assay
The test compounds were screened at a final concentration of 1 μM or 300 nM in the absence and presence of 1 μM of WIN 55, 212-2 in the same manner as described in the GTPγS binding assay.
An agonist will stimulate the GTPγS binding over the basal.
An inverse agonist will decrease the basal GTPγS binding and/or produce more than 100% inhibition of the agonist (WIN-55212-2) induced stimulation.
The percent stimulation of GTPγS binding by each test compound at 1 μM or 300 nM concentration in the absence and presence of 1 μM WIN 55, 212-2 was calculated by comparing it with basal specific bound (Basal binding—Non Specific binding) values.

CB1 [2] = biological target: T1, CB1; assay: Rat CB1 receptor binding using brain membrane, [3H]SR141716A displacement (Protocol I); parameters: CB1 receptor present in a rat brain membrane preparation; from tissue; host or cells: rat brain membrane; inhibition: dose or concentration left out as unconfirmed; details: for inhibition: 1 h
hCB2 = hCB2 (Homo sapiens, UniProt P34972); assay: In vitro binding assay using hCB2-CHO membranes, [3H]-CP-55,940 displacement (Protocol IV); parameters: expressed in transfected cells; host or cells: CHO (hCB2-CHO, generated in-house); details: hCB2-CHO membranes, [3H]-CP-55,940 displacement
Procedure, shortened: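 Compounds were tested at a single 300 nM final concentration for displacing 0.75 nM [3H]-CP-55,940 from hCB2-CHO membranes (1 h, 30 °C, 50 mM Tris pH 7.4, 5 mM MgCl2, 1 mM EDTA, 0.1% BSA). Filter-bound radioactivity was counted, with 0.5 μM unlabelled CP-55,940 for nonspecific binding; results are % displacement.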

[3] = GTPγS binding over basal, rat cerebellar membrane
[4] = rat brain membrane, [3H]SR141716A displacement, read-out: % Displacement Protocol I
[5] = GTPγS binding over basal, rat cerebellar membrane, tested at 1 uM
[6] = GTPγS binding, tested at 1 uM in presence of 1 μM WIN 55,212-2
[7] = read-out: % Displacement Protocol I, rat brain membrane, [3H]SR141716A displacement

T1 sequence (P20272 whole entry): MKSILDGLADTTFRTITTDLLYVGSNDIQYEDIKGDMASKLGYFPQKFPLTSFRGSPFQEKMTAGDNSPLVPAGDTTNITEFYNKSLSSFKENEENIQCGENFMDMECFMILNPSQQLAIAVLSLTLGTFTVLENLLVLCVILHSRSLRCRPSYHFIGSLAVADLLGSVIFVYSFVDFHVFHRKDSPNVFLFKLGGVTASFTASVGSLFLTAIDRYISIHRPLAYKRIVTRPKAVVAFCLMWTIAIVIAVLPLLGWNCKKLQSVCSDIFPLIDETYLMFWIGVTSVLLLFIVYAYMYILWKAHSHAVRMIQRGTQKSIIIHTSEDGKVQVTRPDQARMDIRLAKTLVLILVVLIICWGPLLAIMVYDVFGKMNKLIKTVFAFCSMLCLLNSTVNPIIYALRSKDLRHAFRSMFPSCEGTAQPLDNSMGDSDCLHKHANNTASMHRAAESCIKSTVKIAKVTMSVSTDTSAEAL
Chain of hCB2 (P34972 whole entry): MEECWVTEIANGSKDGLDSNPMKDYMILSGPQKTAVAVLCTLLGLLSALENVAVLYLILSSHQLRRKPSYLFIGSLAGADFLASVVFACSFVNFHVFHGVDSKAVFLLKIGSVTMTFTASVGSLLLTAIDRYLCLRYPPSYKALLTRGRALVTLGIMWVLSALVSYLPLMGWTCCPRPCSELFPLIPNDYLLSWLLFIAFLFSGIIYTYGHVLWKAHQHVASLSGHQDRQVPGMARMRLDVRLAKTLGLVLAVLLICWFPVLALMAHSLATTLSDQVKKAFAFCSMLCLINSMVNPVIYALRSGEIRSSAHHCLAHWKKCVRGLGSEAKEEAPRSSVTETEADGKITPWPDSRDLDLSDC

Structure (SMILES) | melting point | inhibition (CB1 [2]; [4]) | activation at 1 µM (CB1 [1]; [5]) | inhibition at 1 µM (CB1 [1]; [6]) | also measured
C[C@@H](NC(=O)c1nn(-c2ccc(Cl)cc2Cl)c2c1C1CCC2C1)c1ccccc1 (stereo partly drawn) [Example 253, N(3)-[R-(1-phenylethyl)]-1-(2,4-dichlorophenyl)-4,5,6,7-tetrahydro-1H-4,7-methano-indazole-3-carboxamide] | 89 to 92 °C | 63% | – | – | activation at 0.3 µM (CB1 [1]; [3]): -9.3%; inhibition at 0.3 µM (CB1 [1]; GTPγS binding): 79.9%
O=C(NN1CCCCC1)c1nn(-c2ccc(Cl)cc2Cl)c2c1C1CCC2c2ccccc21 (centres unmarked) [Example 502, N(12)-Piperidino-10-(2,4-dichlorophenyl)-10,11-diazatetracyclo[6.5.2.0^2,7.0^9,13]pentadeca-2,4,6,9(13),11-pentaene-12-carboxamide] | 164 to 166 °C | 81.3% | 1.8% | 91.1% | –
O=C(NN(c1ccccc1)c1ccccc1)c1nn(-c2ccc(Cl)cc2)c2c1C1CC3CC(C1)CC2C3 [Example 137, N(7)-(N′,N′-Diphenylamino)-5-(4-chlorophenyl)-5,6-diazatetracyclo[7.3.1.1^3,11.0^4,8]tetradeca-4(8),6-diene-7-carboxamide] | 214 °C | – | 13% | 76% | inhibition (CB1 [2]; [7]): 76.7%
CC12CCC(C1)C(C)(C)C2NC(=O)c1nn(-c2ccc(Cl)cc2Cl)c2c1C1CCC2C1 (centres unmarked) [Example 241, N(3)-(1,3,3-Trimethylbicyclo[2.2.1]hept-2-yl)-1-(2,4-dichlorophenyl)-4,5,6,7-tetrahydro-1H-4,7-methano-indazole-3-carboxamide] | 156 to 159 °C | – | – | – | activation at 0.3 µM (CB1 [1]; [3]): 54.7%; inhibition at 0.3 µM (CB1 [1]; GTPγS binding): 32.9%; inhibition (CB1 [2]; [7]): 92.5%
O=C(NN1CCCCC1)c1nn(-c2ccc(F)cc2F)c2c1C1CC3CC(C1)CC2C3 [Example 143, N(7)-Piperidino-5-(2,4-difluorophenyl)-5,6-diazatetracyclo[7.3.1.1^3,11.0^4,8]tetradeca-4(8),6-diene-7-carboxamide] | 215 °C | 102% | 43.1% | 45% | –
O=C(NCc1ccccc1Br)c1nn(-c2ccc(Cl)cc2)c2c1C1CCC2C1 (centres unmarked) [Example 224, N(3)-(2-Bromobenzyl)-1-(4-chlorophenyl)-4,5,6,7-tetrahydro-1H-4,7-methano-indazole-3-carboxamide] | 141 to 142 °C | – | 5% | 78.1% | inhibition (CB1 [2]; [7]): 81.6%
O=C(NNc1ccccc1)c1nn(-c2ccc(Cl)cc2Cl)c2c1C1CC3CC(C1)CC2C3 [Example 173, N(7)-Phenylamino-5-(2,4-dichlorophenyl)-5,6-diazatetracyclo[7.3.1.1^3,11.0^4,8]tetradeca-4(8),6-diene-7-carboxamide] | 162 to 163 °C | 67.1% | 1.3% | 99.5% | –
O=C(NNc1ccc(Cl)cc1Cl)c1n[nH]c2c1C1(c3ccc(Cl)cc3)CCC2C1 (centres unmarked) [Example 230, N(3)-[(2,4-Dichlorophenyl)amino]-4-(4-chlorophenyl)-4,5,6,7-tetrahydro-1H-4,7-methano-indazole-3-carboxamide] | – | 87.2% | 42.4% | 99.4% | –
O=C(NCc1ccccc1)c1nn(-c2ccc(Cl)cc2Cl)c2c1C1CCC2c2ccccc21 (centres unmarked) [Example 501, N(12)-Benzyl-10-(2,4-dichlorophenyl)-10,11-diazatetracyclo[6.5.2.0^2,7.0^9,13]pentadeca-2,4,6,9(13),11-pentaene-12-carboxamide] | 164 to 166 °C | 82.5% | 53.7% | 40.1% | –
O=C(NCc1ccccc1Cl)c1nn(-c2ccc(Cl)cc2)c2c1C1CC3CC(C1)CC2C3 [Example 111, N(7)-(2-Chlorobenzyl)-5-(4-chlorophenyl)-5,6-diazatetracyclo[7.3.1.1^3,11.0^4,8]tetradeca-4(8),6-diene-7-carboxamide] | 162 to 164 °C | 111% | 6.1% | 101% | –
O=C(NN(c1ccccc1)c1ccccc1)c1nn(-c2ccc(Cl)cc2Cl)c2c1C1CC3CC(C1)CC2C3 [Example 177, N(7)-(N′,N′-Diphenylimino)-5-(2,4-dichlorophenyl)-5,6-diazatetracyclo[7.3.1.1^3,11.0^4,8]tetradeca-4(8),6-diene-7-carboxamide] | – | – | – | – | % Displacement Protocol IV (hCB2): 15.26%; Per Se % Stimulation (CB1 [1]; [5]): 9.7%; % Inhibition of WIN-55212-2 induced stimulation (CB1 [1]; [6]): 109.1%; % Displacement Protocol I (CB1 [2]; rat brain membrane, [3H]SR141716A displacement): 75.6%
CN(NC(=O)c1nn(-c2ccc(Cl)cc2)c2c1C1CC3CC(C1)CC2C3)C1CCCCC1 [Example 107, N(7)-(N-cyclohexyl-N-methylamino)-5-(4-chlorophenyl)-5,6-diazatetracyclo[7.3.1.1^3,11.0^4,8]tetradeca-4(8),6-diene-7-carboxamide] | 219 °C | 97.4% | 4% | 71.5% | –
O=C(NNc1ccccc1)c1nn(-c2ccc(Cl)cc2Cl)c2c1C1CCC2C1 (centres unmarked) [Example 256, N(3)-Phenylamino-1-(2,4-dichlorophenyl)-4,5,6,7-tetrahydro-1H-4,7-methano-indazole-3-carboxamide] | 182 to 185 °C | 63.3% | -21.5% | 69.7% | –
O=C(NN1CCCCC1)c1nn(-c2ccc(Cl)cc2Cl)c2c1C1CC3CC(C1)CC2C3 [Example 180, N(7)-piperidino-5-(2′,4′-dichlorophenyl)-5,6-diazatetracyclo[7.3.1.1^3,11.0^4,8]tetradeca-4(8),6-diene-7-carboxamide] | – | 40.6% | 10% | 87.9% | inhibition at 0.3 µM (hCB2; 1 h, read-out: % Displacement Protocol IV): 13.2%
O=C(NNc1ccccc1F)c1nn(-c2ccc(Cl)cc2Cl)c2c1C1CCC2C1 (centres unmarked) [Example 264, N(3)-[(2-Fluorophenyl)amino]-1-(2,4-dichlorophenyl)-4,5,6,7-tetrahydro-1H-4,7-methano-indazole-3-carboxamide] | – | 85.6% | -0.1% | 94.5% | –
O=C(NNc1ncccc1Cl)c1nn(-c2ccc(Cl)cc2Cl)c2c1C1CCC2C1 (centres unmarked) [Example 267, N(3)-[(3-chloropyridin-2-yl)amino]-1-(2,4-dichlorophenyl)-4,5,6,7-tetrahydro-1H-4,7-methano-indazole-3-carboxamide] | 95 °C | 90% | – | – | activation at 0.3 µM (CB1 [1]; [3]): 12.3%; inhibition at 0.3 µM (CB1 [1]; GTPγS binding): 43.6%
